Activity calls are given as the source filed them. The rule behind the calls is not given here.
How the values were obtained:
Acinetobacter baumannii = assay: Antibacterial activity against Acinetobacter baumannii ATCC19606 incubated for 18 to 24 hrs; assay type: functional; details: time 18-24 hrs
Staphylococcus aureus [1] = assay: Selectivity ratio of MBC for Staphylococcus aureus clinical isolate to MIC for Staphylococcus aureus clinical isolate; assay type: functional
Bacillus subtilis [2] = assay: Selectivity ratio of MBC for penicillin-susceptible Bacillus subtilis ATCC9372 to MIC for penicillin-susceptible Bacillus subtilis ATCC9372; assay type: functional
Bacillus subtilis [3] = assay: Antibacterial activity against penicillin-susceptible Bacillus subtilis ATCC9372 incubated for 18 to 24 hrs; assay type: functional; details: time 18-24 hrs
Staphylococcus aureus [4] = assay: Selectivity ratio of MBC for erythromycin-susceptible Staphylococcus aureus ATCC25923 to MIC for erythromycin-susceptible Staphylococcus aureus ATCC25923; assay type: functional
Streptococcus pyogenes [5] = assay: Antibacterial activity against erythromycin-resistant Streptococcus pyogenes 2 clinical isolate assessed as bacterial growth inhibition incubated for 20 hrs by CLSI based broth microdilution method; assay type: functional
[6] = test system: Staphylococcus epidermidis; assay: Antibacterial activity against penicillin-resistant Staphylococcus epidermidis clinical isolate assessed as bacterial growth inhibition incubated for 20 hrs by CLSI based broth microdilution method; assay type: functional
Staphylococcus aureus [7] = assay: Antibacterial activity against Staphylococcus aureus clinical isolate assessed as bacterial growth inhibition incubated for 20 hrs by CLSI based broth microdilution method; assay type: functional
Staphylococcus aureus [8] = assay: Antibacterial activity against penicillin-resistant Staphylococcus aureus ATCC31007 assessed as bacterial growth inhibition incubated for 20 hrs by CLSI based broth microdilution method; assay type: functional
Staphylococcus aureus [9] = assay: Antibacterial activity against methicillin-resistant Staphylococcus aureus ATCC43300 assessed as bacterial growth inhibition incubated for 20 hrs by CLSI based broth microdilution method; assay type: functional
Klebsiella pneumoniae = assay: Antibacterial activity against Klebsiella pneumoniae ATCC BAA-1902 assessed as bacterial growth inhibition incubated for 20 hrs by CLSI based broth microdilution method; assay type: functional
Escherichia coli [10] = assay: Antibacterial activity against wild-type Escherichia coli BW25113 assessed as bacterial growth inhibition incubated for 20 hrs by CLSI based broth microdilution method; assay type: functional
Enterococcus faecalis = assay: Antibacterial activity against vancomycin-susceptible Enterococcus faecalis ATCC29212 assessed as bacterial growth inhibition incubated for 20 hrs by CLSI based broth microdilution method; assay type: functional
Streptococcus pyogenes [11] = assay: Antibacterial activity against erythromycin-susceptible Streptococcus pyogenes 1 assessed as bacterial growth inhibition incubated for 20 hrs by CLSI based broth microdilution method; assay type: functional
Staphylococcus aureus [12] = assay: Antibacterial activity against erythromycin-susceptible Staphylococcus aureus ATCC25923 assessed as bacterial growth inhibition incubated for 20 hrs by CLSI based broth microdilution method; assay type: functional
Bacillus pumilus = assay: Antibacterial activity against penicillin-susceptible Bacillus pumilus CMCC63202 assessed as bacterial growth inhibition incubated for 20 hrs by CLSI based broth microdilution method; assay type: functional
Staphylococcus aureus [13] = assay: Induction of resistance development in Staphylococcus aureus ATCC25923 assessed as fold increase in MIC at 0.5 times MIC measured after 32 days by multi-passage resistance assay relative to control; assay type: functional; details: time 32.0 day
Staphylococcus aureus [14] = assay: Bactericidal activity against Staphylococcus aureus ATCC25923 assessed as log reduction in bacterial growth at 0.125 ug/ml measured for 6 hrs by time-kill assay; assay type: functional; details: dose 0.125 µg/ml
Staphylococcus aureus [15] = assay: Bactericidal activity against Staphylococcus aureus ATCC25923 measured for 24 hrs by time-kill assay; assay type: functional, organism-based; details: dose 0.125-0.5 µg/ml
Staphylococcus aureus [16] = assay: Inhibition of biofilm formation of Staphylococcus aureus ATCC25923 incubated for 20 hrs by crystal violet staining based analysis; assay type: functional, organism-based
Staphylococcus aureus [17] = assay: Inhibition of biofilm formation of Staphylococcus aureus ATCC25923 at 0.5 ug/ml incubated for 20 hrs by crystal violet staining based analysis relative to control; assay type: functional
Bacillus subtilis [18] = assay: Induction of morphological change in Bacillus subtilis ATCC9372 assessed as increase in cell length at 0.5 times MIC by phase contrast microscopy; assay type: functional, organism-based
[19] = target: T1, Cell division protein FtsZ (Bacillus subtilis) (UniProt A5Z1V5); assay: Induction of FtsZ polymerization in Bacillus subtilis at 2.5 to 10 ug/ml preincubated with compound followed by GTP addition by absorbance based assay; details: dose 2.5-10 µg/ml, time 40.0 min, TDE = time-dependent effect
T1 sequence (whole entry): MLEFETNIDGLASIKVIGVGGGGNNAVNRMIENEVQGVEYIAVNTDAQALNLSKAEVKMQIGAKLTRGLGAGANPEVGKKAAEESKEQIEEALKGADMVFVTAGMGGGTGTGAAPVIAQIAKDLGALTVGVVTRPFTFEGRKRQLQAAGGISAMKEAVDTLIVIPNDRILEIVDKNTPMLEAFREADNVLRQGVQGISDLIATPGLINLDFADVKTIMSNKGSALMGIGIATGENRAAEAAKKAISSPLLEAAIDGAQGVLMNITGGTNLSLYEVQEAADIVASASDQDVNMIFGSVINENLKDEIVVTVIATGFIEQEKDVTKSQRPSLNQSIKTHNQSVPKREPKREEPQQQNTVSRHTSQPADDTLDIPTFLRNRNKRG

[20] = target: T1, Cell division protein FtsZ (Bacillus subtilis); assay: Induction of FtsZ polymerization in Bacillus subtilis preincubated for 10 mins followed by GTP addition measured upto 30 mins by absorbance based assay; details: dose 2.5-10 µg/ml, time 40.0 min
Staphylococcus aureus [21] = assay: Induction of membrane potential depolarization in Staphylococcus aureus ATCC25923 measured after 20 mins by diSC35 dye based spectroscopy; assay type: functional, organism-based
Staphylococcus aureus [22] = assay: Disruption of inner membrane in Staphylococcus aureus ATCC25923 measured after 12 mins by PI staining based analysis; assay type: functional, organism-based
Staphylococcus aureus [23] = assay: Disruption of inner membrane in Staphylococcus aureus ATCC25923 by PI staining based analysis; assay type: functional, organism-based; details: time 12.0 min, TDE = time-dependent effect
Escherichia coli [24] = assay: Disruption of outer membrane in Escherichia coli ATCC25922 measured after 10 mins by NPN dye based analysis; assay type: functional, organism-based; details: dose 4-16 µg/ml
Staphylococcus aureus [25] = assay: Induction of morphological change in Staphylococcus aureus ATCC25923 assessed as loss of bacterial membrane integrity at 16 times MIC incubated for 2 hrs by TEM analysis; assay type: functional, organism-based
Staphylococcus aureus [26] = assay: Induction of morphological change in Staphylococcus aureus ATCC25923 assessed as leakage of cell contents at 16 times MIC incubated for 2 hrs by TEM analysis; assay type: functional, organism-based
Staphylococcus aureus [27] = assay: Effect on proton gradient of cytoplasmic membrane in Staphylococcus aureus ATCC25923 at 1 ug/ml measured after 20 mins by diSC35 dye based analysis; assay type: functional, organism-based; details: Cytoplasm membrane, dose 1.0 µg/ml
Staphylococcus aureus [28] = assay: Disruption of inner membrane in Staphylococcus aureus ATCC25923 at 0.5 ug/ml measured after 12 mins by PI staining based analysis; assay type: functional, organism-based; details: dose 0.5 µg/ml
Escherichia coli [29] = assay: Disruption of outer membrane in Escherichia coli ATCC25922 at 16 ug/ml measured after 10 mins by NPN dye based analysis; assay type: functional, organism-based; details: dose 16.0 µg/ml
[30] = Hemolytic activity in mouse erythrocytes at 16 ug/ml incubated for 1 hr by absorbance based assay; assay type: toxicity, cell-based, Erythrocyte; details: at 16 µg/mL, read-out: Activity
Staphylococcus aureus [31] = assay: Antibacterial activity against Staphylococcus aureus ATCC25923 infected in Kunming mouse model assessed as bacterial growth reduction at 5 to 25 mg/kg, ip; assay type: functional, organism-based; details: dose 5-25 mg/kg

SMILES: C[n+]1cc(-c2ccccc2)c(/C=C/c2ccc(C(C)(C)C)cc2)cc1-c1ccc(C(C)(C)C)cc1.[I-]
- MBC (Acinetobacter baumannii): 1 µg/mL
- Ratio (Staphylococcus aureus [1]): 2
- Ratio (Bacillus subtilis [2]): 2
- MBC (Bacillus subtilis [3]): 0.25 µg/mL
- Ratio (Staphylococcus aureus [4]): 4
- MIC (Streptococcus pyogenes [5]): 2 µg/mL
- MIC [6]: 0.5 µg/mL
- MIC (Staphylococcus aureus [7]): 0.062 µg/mL
- MIC (Staphylococcus aureus [8]): 1 µg/mL
- MIC (Staphylococcus aureus [9]): 0.125 µg/mL
- MIC (Klebsiella pneumoniae): 4 µg/mL
- MIC (Escherichia coli [10]): 2 µg/mL
- MIC (Enterococcus faecalis): 0.25 µg/mL
- MIC (Streptococcus pyogenes [11]): 2 µg/mL
- MIC (Staphylococcus aureus [12]): 0.062 µg/mL
- MIC (Bacillus pumilus): 0.062 µg/mL
- fold change (FC) (Staphylococcus aureus [13]): 2
- Activity (Staphylococcus aureus [14]): 3.059 log10CFU/ml
- Activity (Staphylococcus aureus [15]): Dose-Dependent Effect
- inhibition (Staphylococcus aureus [16]): Dose-Dependent Effect
- inhibition at 0.5 µg/mL (Staphylococcus aureus [17]): 6.06%
- Activity (Bacillus subtilis [18]): Active
- Activity [19]: Tde
- Activity [20]: Dose-Dependent Effect
- Activity (Staphylococcus aureus [21]): Dose-Dependent Effect
- Activity (Staphylococcus aureus [22]): Dose-Dependent Effect
- Activity (Staphylococcus aureus [23]): Tde
- Activity (Escherichia coli [24]): Dose-Dependent Effect
- Activity (Staphylococcus aureus [25]): Active
- Activity (Staphylococcus aureus [26]): Active
- Activity (Staphylococcus aureus [27]): Active
- Activity (Staphylococcus aureus [28]): Active
- Activity (Escherichia coli [29]): Active
- hemolysis at 1 h, 16 ug/ml [30]: 6.37%
- Activity (Staphylococcus aureus [31]): Active

From ChEMBL document CHEMBL5537115, “New broad-spectrum and potent antibacterial agents with dual-targeting mechanism: Promoting FtsZ polymerization and disrupting bacterial membranes” (Eur J Med Chem, 2024)
